According to publication PMC8887546, “Design and Synthesis of Brain Penetrant Glycopeptide Analogues of PACAP With Neuroprotective Potential for Traumatic Brain Injury and Parkinsonism” (Frontiers in drug discovery, 2022):

What was measured:
[1] = tested on: C57BL/6 mice, diffuse TBI; assay: Iba1 microglial skeletal analysis after TBI; format: in vivo, mouse; settings: 10 mg/kg i.p. 30 min prior to TBI, 15 DPI, cortex
Protocol: 30 min prior to TBI or sham injury, mice were randomly assigned to a therapeutic group and received an intraperitoneal injection of 2LS80Mel (10 mg/kg) or sterile saline (0.25 ml). Groups were as follows: TBI-2LS80Mel n = 17; TBI-vehicle n = 17; sham n = 22 (vehicle n = 11, 2LS80Mel n = 11).
For injury induction 24 h post-surgery, mice were re-anesthetized with 5% isoflurane delivered for 3 min. The cap was removed from the injury-hub assembly and the dura was visually inspected through the hub to ensure it was intact with no debris. The hub was then filled with normal saline and attached to an extension tube connected to the male end of the fluid percussion device (Custom Design and Fabrication, Virginia Commonwealth University, Richmond, VA). An injury of moderate severity for our injury model (1.4 atm) was administered by releasing the pendulum onto the fluid-filled cylinder following the return of a toe-pinch response. Sham mice underwent the same procedure except the pendulum was not released. Injured mice were monitored for presence of a forearm fencing response and righting reflex times were recorded as indicators of injury severity ([Hosseini and Lifshitz, 2009]). […] After spontaneously righting, mice were placed in a heated recovery cage and monitored until they were ambulatory (approximately 5–15 min) before being returned to their piezoelectric sleep cage (see below). […]

[2] = tested on: Sprague Dawley rats, 6-OHDA lesion; assay: Striatal dopamine content, HPLC-EC (study 2); format: in vivo, rat; settings: more severe (40%) lesion, vs vehicle
Protocol: Rats were treated with 2LS98Lac or saline (vehicle) as outlined in the Schemes in Figures 9A,B via intraperitoneal (i.p.) injection (15 mg/kg). All animals were made hemi-parkinsonian with unilateral, striatal 6-hydroxydopamine (Sigma Aldrich, St. Louis, MO) injections. After surgery, behavioral assessments were done at 2- and 4-weeks post-surgery. 24 h after the last test animals were either euthanized and whole brains were harvested for future biochemical analysis or perfused and brains collected for immunohistochemistry and stereological assessment of tyrosine hydroxylase-positive (TH+) cells remaining in the SNc. In study 1: n = 16 each group were included, and all underwent the behavioral analysis: n = 16, and for the stereology in the SNc, n = 8 each group was used. In study 2: n = 23 each group were included. […] In the 2LS98Lac group, one video at 4 weeks was lost, reducing n = 22 in this specific analysis, and for the stereology, 2 brains were damaged during processing and could not be included in the stereology of the SNc, therefore […]. For biochemical subanalyses, n = 8 each group. For the microglial morphology subanalysis n = 7 each group.
FIGURE 9 | Evaluation of neuroprotection of the PACAP glycopeptide 2LS98Lac in rat Parkinson’s disease models. (A) Scheme for study 1, using a mild PD lesion. (B) Scheme for study 2, using a moderate PD lesion. […]

Compound | Microglial ramification [1] | Striatal DA content [2]
CC[C@H](C)[C@H](NC(=O)CNC(=O)[C@H](CC(=O)O)NC(=O)[C@H](CO)NC(=O)[C@@H](N)Cc1c[nH]cn1)C(=O)N[C@@H](Cc1ccccc1)C(=O)N[C@H](C(=O)N[C@@H](CC(=O)O)C(=O)N[C@@H](CO)C(=O)N[C@@H](Cc1ccc(O)cc1)C(=O)N[C@@H](CO)C(=O)N[C@@H](CCCNC(=N)N)C(=O)N[C@@H](Cc1ccc(O)cc1)C(=O)N[C@@H](CCCNC(=N)N)C(=O)N[C@@H](CCCCN)C(=O)N[C@@H](CCC(N)=O)C(=O)N[C@@H](CC(C)C)C(=O)N[C@@H](C)C(=O)N[C@H](C(=O)N[C@@H](CCCCN)C(=O)N[C@@H](CCCCN)C(=O)N[C@@H](Cc1ccc(O)cc1)C(=O)N[C@@H](CC(C)C)C(=O)N[C@@H](C)C(=O)N[C@@H](C)C(=O)N[C@H](C(=O)N[C@@H](CC(C)C)C(=O)N[C@@H](CO[C@@H]1O[C@H](CO[C@H]2O[C@H](CO)[C@H](O)[C@H](O)[C@H]2O)[C@@H](O)[C@H](O)[C@H]1O)C(N)=O)C(C)C)C(C)C)[C@@H](C)O [Compound 2LS80Mel] | no significant differences | 
[2H]C([2H])([2H])C([2H])(C([2H])([2H])[2H])[C@]([2H])(NC(=O)[C@H](C)NC(=O)[C@H](C)NC(=O)[C@H](CC(C)C)NC(=O)[C@H](Cc1ccc(O)cc1)NC(=O)[C@H](CCCCN)NC(=O)[C@H](CCCCN)NC(=O)[C@@]([2H])(NC(=O)[C@H](C)NC(=O)[C@H](CC(C)C)NC(=O)[C@H](CCC(N)=O)NC(=O)[C@H](CCCCN)NC(=O)[C@H](CCCNC(=N)N)NC(=O)[C@H](Cc1ccc(O)cc1)NC(=O)[C@H](CCCNC(=N)N)NC(=O)[C@H](CO)NC(=O)[C@H](Cc1ccc(O)cc1)NC(=O)[C@H](CO)NC(=O)[C@H](CC(=O)O)NC(=O)[C@@H](NC(=O)[C@H](Cc1ccccc1)NC(=O)[C@@H](NC(=O)CNC(=O)[C@H](CC(=O)O)NC(=O)[C@H](CO)NC(=O)[C@@H](N)Cc1c[nH]cn1)[C@@H](C)CC)[C@@H](C)O)C([2H])(C([2H])([2H])[2H])C([2H])([2H])[2H])C(=O)N[C@@H](CC(C)C)C(=O)N[C@@H](CO[C@@H]1O[C@H](CO)[C@@H](O[C@@H]2O[C@H](CO)[C@H](O)[C@H](O)[C@H]2O)[C@H](O)[C@H]1O)C(N)=O [Compound 2LS98Lac] |  | no significant difference
